From patent US20130065818A1, “Arylamide Compounds And Compositions And Uses Thereof” (POLYMEDIX, priority 2006, published 2013)
Where two headings read alike, the source gives them in different places.

Columns and labels:
[1] = system: Staphylococcus aureus fluoroquinolone-resistant; assay: MIC, 25 ocular isolates, broth microdilution (Example 8); assay type: cell-based
Protocol: (§1) • Mueller-Hinton Broth in tubes was inoculated with 25 ocular isolates of Staphylococcus aureus fluoroquinolone-susceptible, Staphylococcus aureus fluoroquinolone-resistant, Staphylococcus epidermidis (Coagulase-negative Staphylococcus) fluoroquinolone-susceptible, Staphylococcus epidermidis (Coagulase-negative Staphylococcus) fluoroquinolone-resistant, Pseudomonas aeruginosa and Serratia marcescens, plus two controls (Staphylococcus aureus and E. coli) and incubated at 37° C. overnight on a shaker set at 250 rpm.
(§2) On the day of testing, a 640 μg/ml (1280 μg/ml for Serratia marcescens and Pseudomonas aeruginosa) concentration was prepared from a 1% stock solution in 0.01% acetic acid, 0.2% BSA in polypropylene tubes.
(§3) Serial doubling dilutions in 0.01% acetic acid, 0.2% BSA in 96 well polypropylene plates, which are used as reservoirs for the inoculation of the test plates, were carried out to obtain serial dilutions of test agents at 10 times the required test concentrations: 640, 320, 160, 80, 40, 20, 10, 5, 2.5, 1.25, and 0.625 μg/ml (1280, 640, 320, 160, 80, 40, 20, 10, 5, 2.5, and 1.25 μg/ml for Serratia marcescens and Pseudomonas aeruginosa).
(§4) Ten μl of diluted 10×test agents was added to each well of one row of the 96 well polypropylene plates from column 2 to column 12 (column 1 is a control for bacteria alone, with no peptide). Test agent concentrations in columns 2-12 were as follows: 64, 32, 16, 8, 4, 2, 1, 0.5, 0.25, 0.125, and 0.0625 μg/ml (128, 64, 32, 16, 8, 4, 2, 1, 0.5, 0.25, and 0.125 μg/ml for Serratia marcescens and Pseudomonas aeruginosa). The same peptide was in each of the 8 rows. One plate contained dilutions of one test agent and 8 bacterial isolates.
(§5) On the day of testing, the overnight bacterial broth cultures of Staphylococcus aureus fluoroquinolone-susceptible, Staphylococcus aureus fluoroquinolone-resistant, Staphylococcus epidermidis (Coagulase-negative Staphylococcus) fluoroquinolone-susceptible, Staphylococcus epidermidis (Coagulase-negative Staphylococcus) fluoroquinolone-resistant, Serratia marcescens, and Pseudomonas aeruginosa, plus two controls (Staphylococcus aureus and E. coli) were diluted in 5 ml of trypticase soy broth to yield turbidity equal to a 0.5 McFarland standard. The final inoculum for MIC testing for Staphylococcus aureus fluoroquinolone-susceptible, Staphylococcus aureus fluoroquinolone-resistant, Staphylococcus epidermidis (Coagulase-negative Staphylococcus) fluoroquinolone-susceptible, Staphylococcus epidermidis (Coagulase-negative Staphylococcus) fluoroquinolone-resistant, Serratia marcescens, and Pseudomonas aeruginosa was achieved by placing 0.05 ml of the turbidity adjusted sample to 5 ml of Mueller-Hinton broth.
(§6) Ninety μl of the bacterial suspensions was dispensed in each well from column 1 to column 12. Each bacterial isolate was placed in one row of a 96 well polypropylene plate containing the test agents. The plates were placed on shaker at 15 minutes at room temperature, and then incubated at 37° C. overnight. MICs were determined visually as the lowest concentration of drug that inhibits visible bacterial growth.

[2] = system: Staphylococcus epidermidis (Coagulase-negative Staphylococcus) fluoroquinolone-susceptible; assay: as above; assay type: cell-based
Protocol: as §1, §2, §3, §4, §5, §6

N=C(N)NCCCCC(=O)Nc1cc(C(F)(F)F)cc(NC(=O)c2cnc(C(=O)Nc3cc(C(F)(F)F)cc(NC(=O)CCCCNC(=N)N)c3SCCN)cn2)c1SCCN [Oligomer 5]
≤ 0.25 µg/mL: MIC ([1]; Staphylococcus aureus, 25 ocular isolates, read-out: Median MIC) | MIC ([2]; Staphylococcus epidermidis, 25 ocular isolates, read-out: Median MIC)
0.25 µg/mL: MIC50 ([1]; 25 isolates, Row 13) | MIC ([1]; Staphylococcus aureus, isolate 2—E475, read-out: MIC) | MIC ([1]; Staphylococcus aureus, isolate 3—E442, read-out: MIC) | MIC ([1]; Staphylococcus aureus, isolate 5—E425, read-out: MIC) | MIC ([1]; Staphylococcus aureus, isolate 6—E424, read-out: MIC) | MIC ([1]; Staphylococcus aureus, isolate 7—E417, read-out: MIC) | MIC ([1]; Staphylococcus aureus, isolate 9—E401, read-out: MIC) | MIC ([1]; Staphylococcus aureus, isolate 10—K1659, read-out: MIC) | MIC ([1]; Staphylococcus aureus, isolate 11—E96, read-out: MIC) | MIC ([1]; Staphylococcus aureus, isolate 14—E361, read-out: MIC) | MIC ([1]; Staphylococcus aureus, isolate 15—E339, read-out: MIC) | MIC ([1]; Staphylococcus aureus, isolate 17—E332, read-out: MIC) | MIC ([1]; Staphylococcus aureus, isolate 18—E327, read-out: MIC) | MIC ([1]; Staphylococcus aureus, isolate 19—E325, read-out: MIC) | MIC ([1]; Staphylococcus aureus, isolate 20—K950, read-out: MIC) | MIC ([1]; Staphylococcus aureus, isolate 21—K839, read-out: MIC) | MIC ([1]; Staphylococcus aureus, isolate 22—K1679, read-out: MIC) | MIC ([1]; Staphylococcus aureus, isolate 24—K1672, read-out: MIC) | MIC ([1]; Staphylococcus aureus, isolate 25—K1670, read-out: MIC) | MIC ([1]; Staphylococcus aureus, n=25 per group, read-out: Median MIC) | MIC50 ([1]; Staphylococcus aureus, 25 isolates, Summary of Results, read-out: MIC50) | MIC ([1]; Staphylococcus aureus, 25 isolates, Summary of Results, read-out: Median MIC) | MIC50 ([1]; n=25 per group) | MIC90 ([2]; 25 isolates, Row 22) | MIC ([2]; Staphylococcus epidermidis, isolate 1—E511, read-out: MIC) | MIC ([2]; Staphylococcus epidermidis, isolate 4—E476, read-out: MIC) | MIC ([2]; Staphylococcus epidermidis, isolate 22—E328, read-out: MIC) | MIC ([2]; Staphylococcus epidermidis, isolate 24—E381, read-out: MIC) | MIC90 ([2]; Staphylococcus epidermidis, 25 isolates, Summary of Results, read-out: MIC90) | MIC90 ([2]; n=25 per group)
0.5 µg/mL: MIC90 ([1]; 25 isolates, Row 22) | MIC ([1]; Staphylococcus aureus, isolate 1—E504, read-out: MIC) | MIC ([1]; Staphylococcus aureus, isolate 4—E427, read-out: MIC) | MIC ([1]; Staphylococcus aureus, isolate 12—E379, read-out: MIC) | MIC ([1]; Staphylococcus aureus, isolate 13—E369, read-out: MIC) | MIC ([1]; Staphylococcus aureus, isolate 23—K1677, read-out: MIC) | MIC90 ([1]; Staphylococcus aureus, 25 isolates, Summary of Results, read-out: MIC90) | MIC90 ([1]; n=25 per group)
0.03125 to 0.25 µg/mL: Range of MICs ([2]; 25 isolates, Summary of Results, <0.0625 was Replaced with 0.03125) | Range of MICs ([2]; n=25 per group)
0.125 to 0.5 µg/mL: Range of MICs ([1]; 25 isolates, Summary of Results) | Range of MICs ([1]; n=25 per group)
< 0.0625 µg/mL: MIC ([2]; Staphylococcus epidermidis, isolate 10—E443, read-out: MIC) | MIC ([2]; Staphylococcus epidermidis, isolate 25—E372, read-out: MIC)
0.125 µg/mL: MIC ([1]; Staphylococcus aureus, isolate 8—E407, read-out: MIC) | MIC ([1]; Staphylococcus aureus, isolate 16—E333, read-out: MIC) | MIC50 ([2]; 25 isolates, Row 13) | MIC ([2]; Staphylococcus epidermidis, isolate 2—E489, read-out: MIC) | MIC ([2]; Staphylococcus epidermidis, isolate 3—E491, read-out: MIC) | MIC ([2]; Staphylococcus epidermidis, isolate 5—E473, read-out: MIC) | MIC ([2]; Staphylococcus epidermidis, isolate 6—E462, read-out: MIC) | MIC ([2]; Staphylococcus epidermidis, isolate 7—E460, read-out: MIC) | MIC ([2]; Staphylococcus epidermidis, isolate 8—E453, read-out: MIC) | MIC ([2]; Staphylococcus epidermidis, isolate 9—E448, read-out: MIC) | MIC ([2]; Staphylococcus epidermidis, isolate 11—E441, read-out: MIC) | MIC ([2]; Staphylococcus epidermidis, isolate 12—E438, read-out: MIC) | MIC ([2]; Staphylococcus epidermidis, isolate 13—E437, read-out: MIC) | MIC ([2]; Staphylococcus epidermidis, isolate 14—E434, read-out: MIC) | MIC ([2]; Staphylococcus epidermidis, isolate 15—E433, read-out: MIC) | MIC ([2]; Staphylococcus epidermidis, isolate 16—E430, read-out: MIC) | MIC ([2]; Staphylococcus epidermidis, isolate 17—E420, read-out: MIC) | MIC ([2]; Staphylococcus epidermidis, isolate 18—E419, read-out: MIC) | MIC ([2]; Staphylococcus epidermidis, isolate 19—E403, read-out: MIC) | MIC ([2]; Staphylococcus epidermidis, isolate 20—E394, read-out: MIC) | MIC ([2]; Staphylococcus epidermidis, isolate 21—E393, read-out: MIC) | MIC ([2]; Staphylococcus epidermidis, isolate 23—E382, read-out: MIC) | MIC ([2]; Staphylococcus epidermidis, n=25 per group, read-out: Median MIC) | MIC50 ([2]; Staphylococcus epidermidis, 25 isolates, Summary of Results, read-out: MIC50) | MIC ([2]; Staphylococcus epidermidis, 25 isolates, Summary of Results, read-out: Median MIC) | MIC50 ([2]; n=25 per group)
